This note sets out measurements from patent publication US20220133688A1, “MACROCYCLIC LACTONE ANTHELMINTICS AGAINST NEMATODES” (Bayer Animal Health GmbH, priority 2019, published 2022).

Where “and” joins values, the source holds several entries; their conditions need not be identical. Equal values may be shown once. Read-outs that look alike come from different tables or passages of the source.

Assay [1] deals with D. immitis Mf, Yazoo-2013 strain (resistant). As to the kind of experiment: Cell attachment assay (canine PMN or PBMC attachment to Mf), Yazoo-2013 isolate. It is filed as cell-based, Dirofilaria immitis.
Assay [2] has as its system D. immitis Mf, Metairie-2014 strain (resistant). Kind of assay: Cell attachment assay (canine PMN or PBMC attachment to Mf), Metairie-2014 isolate. It counts as cell-based, Dirofilaria immitis. The settings on record: for lowest drug concentration at which a statistically significant increase (p = <0.05) in cell attachment was observed compared to the no-drug control: 2-way ANOVA.

`CC[C@H](C)[C@H]1O[C@]2(CC[C@@H]1C)C[C@@H]1C[C@@H](C/C=C(\C)[C@@H](O[C@H]3C[C@H](OC)[C@@H](O[C@H]4C[C@H](OC)[C@@H](O)[C@H](C)O4)[C@H](C)O3)[C@@H](C)/C=C/C=C3\CO[C@@H]4[C@H](O)C(C)=C[C@@H](C(=O)O1)[C@]34O)O2` [IVM, ivermectin]: in assay [1], the “Percentage (±SEM) of Mf with cells attached” value (shortened to “Percentage (±SEM) of Mf”) was 25 ± 5% and 18 ± 4%; the “drug concentration causing a significant increase in cell attachment” value lay within 100 to 300 nM; the “lowest drug concentration at which a statistically significant increase (p = <0.05) in cell attachment was observed compared to the no-drug control” value came out at 100 nM. In assay [2], the “Percentage (±SEM) of Mf” value is 13% and 10% and 13 ± 3% and 10 ± 2%; the “drug concentration required for a significant increase in cell attachment” value was at least 1 µM; the “increase in attachment of PBMCs at any concentration” value is given as “no significant increase”.
With `CO/N=C1\C[C@]2(C[C@@H]3C[C@@H](C/C=C(\C)C[C@@H](C)/C=C/C=C4\CO[C@@H]5[C@H](O)C(C)=C[C@@H](C(=O)O3)[C@]45O)O2)O[C@H](/C(C)=C/C(C)C)[C@H]1C` [MOX, moxidectin], the “Percentage (±SEM) of Mf” value in assay [1] (PBMC, 1 μM drug, Yazoo-2013 Mf) was 19 ± 3%; in assay [1] (PMN, 1 μM drug, Yazoo-2013 Mf), 28 ± 5%; in assay [2] (PBMC, 1 μM drug, Metairie-2014 Mf) it was 49 ± 8%; in assay [2] (PMN, 1 μM drug, Metairie-2014 Mf), 42 ± 6%. The “lowest drug concentration at which a statistically significant increase (p = <0.05) in cell attachment was observed compared to the no-drug control” value in assay [1] (PBMC, 40 h, Yazoo-2013 Mf, 2-way ANOVA) was found to be 10 nM; in assay [1] (PMN, 24 h, Yazoo-2013 Mf, 2-way ANOVA) it was 3 nM; in assay [2] (PBMC, 40 h, Metairie-2014 Mf), 1 nM; in assay [2] (PMN, 24 h, Metairie-2014 Mf), 10 nM. In addition, the “drug concentration causing a significant increase in cell attachment” value in assay [1] (PMNs and PBMCs, Yazoo-2013 Mf) was in the range of 3 to 10 nM.
